According to US12036210B2, “Heteroaryl substituted beta-hydroxyethylamines for use in treating hyperglycaemia” (ATROGI AB, priority 2017, dated 2024):
Counter-ions that a name gives are not always drawn.

Assays:
L6-myotubes = assay: Glucose uptake (3H-2-deoxy-glucose) in differentiated L6-myotubes; type: cell-based; conditions: agonist final concentration 1×10^−5, 50 nM 3H-2-deoxy-glucose, relative to isoproterenol, read-out: Biological example 1 (glucose uptake, activity compared to that of isoproterenol)
Procedure: (§1) L6-myoblasts were grown in Dulbecco's Modified Eagle's Medium (DMEM) containing 4.5 g/I glucose supplemented with 10% fetal bovine serum, 2 mM L-Glutamine, 50 U/ml penicillin, 50 μg/ml streptomycin and 10 mM HEPES. Cells were plated at 1×10^5 cells per ml in 24-well plates. After reaching 90% confluence the cells were grown in medium containing 2% FBS for 7 days where upon cells differentiated into myotubes.
Differentiated L6-myotubes were serum-starved over night in medium containing 0.5% fatty-acid free BSA and stimulated with agonist, final concentration 1×10^−5. After 1 h 40 min cells were washed with warm, glucose free medium or PBS and another portion of agonist was added to glucose free medium. After 20 min the cells were exposed to 50 nM ^3H-2-deoxy-glucose for another 10 min before washed in ice cold glucose free medium or PBS and lysed in 0.2 M NaOH for 1 h in 60° C.

[1] = test system: Intracellular cAMP levels; assay: Measurement of intracellular cAMP levels in differentiated L6 cells (alpha screen cAMP kit); type: cell-based; conditions: Rattus norvegicus, L6, 0.25 h, agonist final concentration 1×10^−5 for 15 min, 1 mM IBMX, relative to isoproterenol, read-out: Biological example 2 (intracellular cAMP levels, activity compared to that of isoproterenol)
Procedure: as §1
Differentiated cells were serum-starved over night and stimulated with agonist, final concentration 1×10^−5, for 15 min in stimulation buffer (HBSS supplemented with 1% BSA, 5 mM HEPES and 1 mM IBMX, pH 7.4) The medium was then aspirated and to end the reaction 100 μL of 95% EtOH was added to each well of a 24-well plate and cells were kept in −20° C. over night. The EtOH was let to evaporate and 500 μL of lysis buffer (1% BSA, 5 mM HEPES and 0.3% Tween-20, pH 7.4) was added to each well before put in −80° C. for 30 min and then kept in −20° C. Intracellular cAMP levels were detected using an alpha screen cAMP kit (6760635D from Perkin Elmer). The activity for each compound is compared to that of isoproterenol.

| Compound | Emax (L6-myotubes) | Emax [1] |
| --- | --- | --- |
| CC(C)(C)NC[C@H](O)c1cncc(Cl)c1 [Example 19, (R)-2-(tert-Butylamino)-1-(5-chloropyridin-3-yl)ethan-1-ol] | > 75% | < 25% |
| CC(C)(C)NC[C@H](O)c1ccc(F)cn1 [Example 16, (S)-2-(tert-Butylamino)-1-(5-fluoropyridin-2-yl)ethan-1-ol] | 50 to 75% | < 25% |
| CCCCNCC(O)c1ccncc1 (stereo not drawn) [Example 6, 2-(Butylamino)-1-(pyridin-4-yl)ethan-1-ol] | 25 to 50% | < 25% |
| CC(C)(C)NC[C@H](O)c1ncccc1Cl [Example 20, (S)-2-(tert-Butylamino)-1-(3-chloropyridin-2-yl)ethan-1-ol dihydrochloride] | 25 to 50% | < 25% |
| CC(C)(C)NC[C@H](O)c1ccc(Cl)cn1 [Example 21, (S)-2-(tert-Butylamino)-1-(5-chloropyridin-2-yl)ethan-1-ol dihydrochloride] | 25 to 50% | < 25% |
| CC(C)(C)NC[C@H](O)c1cncc(O)c1 [Example 13, (R)-5-(2-(tert-Butylamino)-1-hydroxyethyl)pyridin-3-ol dihydrochloride] | > 75% | < 25% |
| CCCCNCC(O)c1ccc(=O)[nH]c1 (stereo not drawn) [Example 3, 5-(2-(Butylamino)-1-hydroxyethyl)pyridin-2(1H)-one] | 25 to 50% | < 25% |
| CCCCNC[C@H](O)c1cnc(NC(=O)C(C)C)s1 [Example 8, (S)—N-(5-(2-(Butylamino)-1-hydroxyethyl)thiazol-2-yl)isobutyramide] | 25 to 50% | < 25% |
| Cn1ccc([C@@H](O)CNC(C)(C)C)cc1=O [Example 15, (R)-4-(2-(tert-Butylamino)-1-hydroxyethyl)-1-methylpyridin-2(1H)-one] | > 75% | < 25% |
| CC(C)(C)NC[C@H](O)c1ccncc1F [Example 18, (R)-2-(tert-Butylamino)-1-(3-fluoropyridin-4-yl)ethan-1-ol] | 25 to 50% | < 25% |
| CCCCNCC(O)c1cc[nH]c(=O)c1 (stereo not drawn) [Example 4, 4-(2-(Butylamino)-1-hydroxyethyl)pyridin-2(1H)-one acetate] | 50 to 75% | < 25% |
| CC(C)(C)NCC(O)c1ccncc1O (stereo not drawn) [Example 14, 4-(2-(tert-Butylamino)-1-hydroxyethyl)pyridin-3-ol hydrochloride] | > 75% | < 25% |
| CCCCNC[C@H](O)c1ccnc(N)n1 [Example 5, (S)-1-(2-Aminopyrimidin-4-yl)-2-(butylamino)ethan-1-ol] | 25 to 50% | < 25% |
| CCCCNC[C@H](O)c1csc(N)n1 [Example 1, (S)-1-(2-Aminothiazol-4-yl)-2-(butylamino)ethan-1-ol hydrochloride] | 25 to 50% | < 25% |
| CCCCNC[C@H](O)c1cnc(N)nc1 [Example 11, (R)-1-(2-Aminopyrimidin-5-yl)-2-(butylamino)ethan-1-ol] | 50 to 75% | < 25% |
| CCCCNCC(O)c1cccnc1 (stereo not drawn) [Example 7, 2-(Butylamino)-1-(pyridin-3-yl)ethan-1-ol] | 50 to 75% | < 25% |
| CC(C)(C)NC[C@H](O)c1cncc(F)c1 [Example 17, (R)-2-(tert-Butylamino)-1-(5-fluoropyridin-3-yl)ethan-1-ol] | > 75% | 25 to 50% |
| CC(C)(C)NC[C@H](O)c1ccc(O)cn1 [Example 12, (S)-6-(2-(tert-Butylamino)-1-hydroxyethyl)pyridin-3-ol] | 50 to 75% | < 25% |
| CCCCNC[C@H](O)c1cnc(N)s1 [Example 9, (S)-1-(2-Aminothiazol-5-yl)-2-(butylamino)ethan-1-ol dihydrochloride] | 25 to 50% | < 25% |
| CCCCNC[C@H](O)c1cnc(NC(=O)C(C)C)nc1 [Example 10, (R)—N-(5-(2-(Butylamino)-1-hydroxyethyl)pyrimidin-2-yl)isobutyramide hydrochloride] | 50 to 75% | < 25% |
| CCCCNC[C@H](O)c1csc(C(F)(F)F)n1 [Example 2, (S)-2-(Butylamino)-1-(2-(trifluoromethyl)thiazol-4-yl)ethan-1-ol hydrochloride] | 25 to 50% | < 25% |
